Reference: patent US20160168118A1, “N-(5-QUINOLIN-6-YL)PYRIDIN-3-YL) BENZSULFAMIDE DERIVATIVES, PREPARATION METHOD AND THERAPEUTIC USE THEREOF” (SECOND MILITARY MEDICAL UNIVERSITY, PLA, priority 2012, published 2016)
Converted amounts (≈) assume the structure as drawn. Read-outs that look alike come from different tables or passages of the source.

Legend:
mTOR = mTOR (Homo sapiens, UniProt P42345); test: Lance Ultra Assay, mTOR; assay type: biochemical
SN12C = test: NCI cytotoxicity test, SN12C; assay type: cell-based; settings: Homo sapiens
Source text: (§1) Cytotoxicity Test of Compound 9, 10 and 17 on 60 Kinds of Human Cancer Cell Lines from the US National Cancer Institute

PI3Kβ = PI3Kβ (Homo sapiens, UniProt P42338); test: ADP-Glo Luminescent Kinase Assay, PI3Kβ; assay type: biochemical; settings: read-out: IC50 on PI3K beta
PI3Kγ = PI3Kγ (Homo sapiens, UniProt P48736); test: ADP-Glo Luminescent Kinase Assay, PI3Kγ; assay type: biochemical; settings: read-out: IC50 on PI3K gamma
A549 = test: NCI cytotoxicity test, A549; assay type: cell-based; settings: Homo sapiens
Source text: as §1

[1] = system: human lung carcinoma A549 xenografts; test: In vivo efficacy on human lung carcinoma A549 xenografts in nude mice; set-up: species or system BALB/C nude mice; settings: ig, GSK2126458 3 mg/kg, compound 9 10 mg/kg
Source text: Strain: BALB/C nude mice (SPF grade), Source: Shanghai Slac laboratory animal limited liability company, the production license number: SCXK (Shanghai) 2007-0005, the using license number: SYXK (Shanghai) 2009-0068, gender: male, weight: 18-20 g, the number of animals per group: 6.
A549 solid tumors which were well-grown were taken, cut to uniform bits of about 3 mm size under aseptic condition, every bit was inoculated to each mouse subcutaneously in the right armpit with trocar, and randomly divided into three groups, each treatment was:
1) Control (saline), gavage, the dose 25 ml/kg, 14 days;
3) Compound 9, gavage, the dose 10 mg/kg, 14 days;
Regrouped according to tumor size on the 13th day after inoculation, the animals of which tumor size is too large and too small were eliminated, the average tumor volume of each group are basically the same. Administration was carried out according to the above regimen; the dosing volume was 0.5 ml/20 g body weight. The axis (a), shorter diameter (b) of tumor was measured 2 times a week with an electronic digital caliper, calculate formula of tumor volume (tumor volume, TV) is as follows: TV=1/2×a×b2, calculate formula of relative tumor volume (relative tumor volume, RTV), is as follows: RTV=Vt/Vo, wherein Vo is the tumor volume measured at the time when dividing cages (i.e. dl), Vt is the tumor volume measured each time. […] T test was conducted. Animals were sacrificed 30 days after inoculation, dissected and the tumor mass were taken, tumor weight was measured.

five human tumor cells = test: MTT assay, five human tumor cells (summary in words); assay type: cell-based; settings: A549, HCT116, HepG2, ZR-75-30, U87MG
Procedure: 1. Sample preparation: After dissolved with DMSO (Merck), PBS (−) was added to make 1000 μg/ml solution or a uniform suspension, and then diluted with PBS (−) containing the DMSO. Doxorubicin (DOX) was used as the positive control drug.
2. Cell Line • 1) A549 (human lung cancer cells); 2) HCT116 (human colon cancer cells); 3) HepG2 (human hepatoma cells); 4) ZR-75-30 (human breast cancer cells); 5) U87MG (human brain star glioblastoma)
DMEM+5-10% FBS+double resistant
MTT assay. 100 μl cell suspension was added at a concentration of 4˜5×10^4 cells/ml to each well of a 96-well plate, and was set at 37° C., 5% CO2 in the incubator. After 24 h, the sample solution was added, 10 μl/hole, double wells were set, 37° C., acting for 72 h at 5% CO2. […] of 5 mg/ml was added to each well, the dissolving liquid was added after acted for 4 h, 100 μl/hole, kept in the incubator, and read 570 nm OD with MK-2 automatic microplate reader after dissolution.

OVCAR3 = test: NCI cytotoxicity test, OVCAR3; assay type: cell-based; settings: Homo sapiens, OVCAR-3
Source text: as §1

SF539 = test: NCI cytotoxicity test, SF539; assay type: cell-based; settings: Homo sapiens, SF-539
Source text: as §1

COLO205 = test: NCI cytotoxicity test, COLO205; assay type: cell-based; settings: Homo sapiens, COLO 205
Source text: as §1

[2] = system: HCT116 (human colon cancer cells); test: MTT assay, HCT116; assay type: cell-based; settings: HCT-116, 72 h
PC3 = test: NCI cytotoxicity test, PC3; assay type: cell-based; settings: Homo sapiens, PC-3
Source text: as §1

[3] = system: 60 kinds of human cancer cell lines; test: Cytotoxicity test on 60 kinds of human cancer cell lines from the US National Cancer Institute; assay type: cell-based
Source text: as §1

MCF7 = test: NCI cytotoxicity test, MCF7; assay type: cell-based; settings: Homo sapiens
Source text: as §1

Sequence of PI3Kβ (P42338 whole entry, species assumed): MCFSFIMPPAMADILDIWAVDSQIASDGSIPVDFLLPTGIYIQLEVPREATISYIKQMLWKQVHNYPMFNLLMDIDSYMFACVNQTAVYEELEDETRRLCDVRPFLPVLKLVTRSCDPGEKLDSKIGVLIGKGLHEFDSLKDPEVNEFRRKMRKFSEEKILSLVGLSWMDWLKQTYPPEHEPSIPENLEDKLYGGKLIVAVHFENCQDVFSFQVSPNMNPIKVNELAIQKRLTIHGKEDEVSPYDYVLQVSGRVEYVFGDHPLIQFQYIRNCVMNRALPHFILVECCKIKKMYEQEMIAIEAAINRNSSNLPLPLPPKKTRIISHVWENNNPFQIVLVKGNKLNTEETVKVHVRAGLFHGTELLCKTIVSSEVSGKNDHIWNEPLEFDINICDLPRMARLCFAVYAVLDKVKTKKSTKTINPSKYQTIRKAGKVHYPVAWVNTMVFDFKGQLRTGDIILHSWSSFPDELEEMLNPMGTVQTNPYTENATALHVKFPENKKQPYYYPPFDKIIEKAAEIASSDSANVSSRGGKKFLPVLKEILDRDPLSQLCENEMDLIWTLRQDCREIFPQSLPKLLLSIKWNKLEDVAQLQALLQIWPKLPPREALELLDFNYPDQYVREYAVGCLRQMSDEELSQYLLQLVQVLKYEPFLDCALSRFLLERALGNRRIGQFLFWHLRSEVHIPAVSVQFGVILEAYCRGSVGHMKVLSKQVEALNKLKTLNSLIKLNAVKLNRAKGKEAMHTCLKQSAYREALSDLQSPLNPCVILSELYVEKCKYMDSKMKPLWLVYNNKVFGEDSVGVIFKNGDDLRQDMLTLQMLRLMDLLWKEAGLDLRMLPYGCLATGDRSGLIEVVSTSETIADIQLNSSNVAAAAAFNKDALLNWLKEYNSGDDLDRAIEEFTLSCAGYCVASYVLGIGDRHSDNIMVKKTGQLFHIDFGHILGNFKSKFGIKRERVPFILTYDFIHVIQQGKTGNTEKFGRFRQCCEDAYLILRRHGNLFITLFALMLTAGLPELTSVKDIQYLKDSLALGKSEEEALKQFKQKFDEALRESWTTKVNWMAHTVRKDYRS
Sequence of PI3Kβ (P27986 whole entry partner, species assumed): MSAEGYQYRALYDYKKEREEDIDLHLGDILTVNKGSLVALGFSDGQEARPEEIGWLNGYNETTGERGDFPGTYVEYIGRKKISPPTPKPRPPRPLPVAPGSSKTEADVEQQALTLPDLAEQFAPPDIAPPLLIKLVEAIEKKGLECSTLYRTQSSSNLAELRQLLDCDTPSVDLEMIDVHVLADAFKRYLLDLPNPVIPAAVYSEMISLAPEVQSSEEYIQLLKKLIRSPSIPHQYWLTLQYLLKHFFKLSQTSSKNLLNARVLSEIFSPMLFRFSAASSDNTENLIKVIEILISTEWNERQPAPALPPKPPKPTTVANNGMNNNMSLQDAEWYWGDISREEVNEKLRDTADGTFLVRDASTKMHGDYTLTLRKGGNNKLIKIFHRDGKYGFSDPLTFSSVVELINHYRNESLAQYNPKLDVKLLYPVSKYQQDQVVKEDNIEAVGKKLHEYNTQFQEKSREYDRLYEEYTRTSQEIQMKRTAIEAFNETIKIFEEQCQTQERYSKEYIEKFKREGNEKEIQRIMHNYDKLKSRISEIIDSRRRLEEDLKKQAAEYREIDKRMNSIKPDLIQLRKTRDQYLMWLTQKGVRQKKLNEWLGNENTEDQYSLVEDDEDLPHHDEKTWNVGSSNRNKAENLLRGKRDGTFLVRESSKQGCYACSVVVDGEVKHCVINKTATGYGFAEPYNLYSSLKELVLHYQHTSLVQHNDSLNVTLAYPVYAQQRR
Sequence of PI3Kγ (P48736 whole entry, species assumed): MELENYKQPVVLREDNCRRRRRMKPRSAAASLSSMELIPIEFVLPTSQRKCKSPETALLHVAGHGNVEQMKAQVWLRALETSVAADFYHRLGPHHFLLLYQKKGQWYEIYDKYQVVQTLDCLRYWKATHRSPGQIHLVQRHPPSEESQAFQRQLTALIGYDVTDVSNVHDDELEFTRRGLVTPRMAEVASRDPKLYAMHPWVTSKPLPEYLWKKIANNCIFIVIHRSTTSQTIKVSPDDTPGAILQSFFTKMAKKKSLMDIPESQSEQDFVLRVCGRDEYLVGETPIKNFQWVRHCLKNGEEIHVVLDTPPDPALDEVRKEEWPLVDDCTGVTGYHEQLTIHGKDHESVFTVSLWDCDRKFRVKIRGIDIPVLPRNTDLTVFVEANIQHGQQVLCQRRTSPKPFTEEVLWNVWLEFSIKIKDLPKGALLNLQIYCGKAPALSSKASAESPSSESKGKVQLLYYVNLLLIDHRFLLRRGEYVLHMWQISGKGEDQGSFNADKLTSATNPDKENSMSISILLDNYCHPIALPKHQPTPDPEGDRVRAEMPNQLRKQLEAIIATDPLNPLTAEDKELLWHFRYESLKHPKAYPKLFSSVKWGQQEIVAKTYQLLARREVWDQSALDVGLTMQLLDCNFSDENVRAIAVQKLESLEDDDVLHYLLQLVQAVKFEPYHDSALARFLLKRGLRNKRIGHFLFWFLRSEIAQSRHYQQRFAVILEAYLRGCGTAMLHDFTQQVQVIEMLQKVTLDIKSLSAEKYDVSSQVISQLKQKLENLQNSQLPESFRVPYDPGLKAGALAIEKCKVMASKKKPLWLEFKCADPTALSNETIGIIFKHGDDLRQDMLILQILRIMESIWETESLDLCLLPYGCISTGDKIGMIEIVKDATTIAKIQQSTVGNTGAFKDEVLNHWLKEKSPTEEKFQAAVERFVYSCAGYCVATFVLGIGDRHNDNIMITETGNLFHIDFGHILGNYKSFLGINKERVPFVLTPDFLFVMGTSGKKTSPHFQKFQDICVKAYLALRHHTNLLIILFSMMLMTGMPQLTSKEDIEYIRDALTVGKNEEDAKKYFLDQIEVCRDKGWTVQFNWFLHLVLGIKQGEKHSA

- IC50 (mTOR): 3.8 nM
- IC50 (PI3Kβ): 1.8 nM
- IC50 (PI3Kγ): 1.5 nM
- Animal wight (g) (tumor removed) ([1]; at end): 23.28 ± 1.34 g
- IC50 [2]: 1.69 ng/mL (≈ 3.01 nM)
Structure (SMILES): COc1ncc(-c2ccc3nccc(-c4ccc(CN(C)C)cc4)c3c2)cc1NS(=O)(=O)c1ccc(F)cc1F [Compound 9, N-(5-(4-(4-((dimethylamine)methyl)phenyl)quinolin-6-yl)-2-methoxypyridine-3-yl)-2,4-difluorobenzenesulfonamide]
- GI50 (SN12C): < 10 nM
- GI50 (A549): < 10 nM
- RTV (d18) x ± SD ([1]; d18): 5.37 ± 1.86
- in vitro proliferation inhibition (in words) (five human tumor cells): high in vitro proliferation inhibition
- GI50 (OVCAR3): < 10 nM
- GI50 (SF539): 17 nM
- GI50 (COLO205): 13.5 nM
- GI50 (PC3): < 10 nM
- GI50 ([3]; on the 35 tumor cell lines, read-out: average half growth inhibitory concentration (GI50)): < 10 nM
- GI50 ([3]; on the 60 kinds of tumor cells, read-out: Average GI50): 18.6 nM
- GI50 (MCF7): < 10 nM
